pIC50: −log10 of the molar value.
Molecular target: purified human, His-tagged PRC2 complex (Homo sapiens (Human), UniProt O75530)
Assay: Hot Spot HMT assay, inhibition of PRC2 enzymatic activity
Type: biochemical
Settings: 10 nM PRC2 complex, 1 μM 3H-SAM, core histone H3, 10-point dose-response
How it was run: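 Five-subunit PRC2 complex (EZH2, EED, SUZ12, AEBP2, RbAp48; 10 nM) preincubated 20 min at 30° C with compound (top 1.0 μM) and 0.05 mg/ml core histone H3 in Tris-HCl, 1% DMSO. Started with 1 μM [3H]SAM, 1 hr at 30° C; tritiated H3 measured by filter binding and scintillation.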

Chain of purified human, His-tagged PRC2 complex (O75530 whole entry): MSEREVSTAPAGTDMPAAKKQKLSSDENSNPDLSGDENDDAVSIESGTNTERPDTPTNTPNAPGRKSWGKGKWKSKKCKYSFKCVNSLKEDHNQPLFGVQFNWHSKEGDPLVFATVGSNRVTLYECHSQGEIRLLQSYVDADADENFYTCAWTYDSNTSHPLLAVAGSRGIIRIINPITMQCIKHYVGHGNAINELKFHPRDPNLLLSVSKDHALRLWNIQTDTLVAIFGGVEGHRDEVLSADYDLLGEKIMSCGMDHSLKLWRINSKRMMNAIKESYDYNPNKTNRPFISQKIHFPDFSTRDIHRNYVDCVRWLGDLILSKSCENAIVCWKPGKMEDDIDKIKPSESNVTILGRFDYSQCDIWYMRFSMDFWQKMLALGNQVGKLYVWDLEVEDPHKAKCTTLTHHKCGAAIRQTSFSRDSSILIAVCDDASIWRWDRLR
Chain of purified human, His-tagged PRC2 complex (Q15910 whole entry partner): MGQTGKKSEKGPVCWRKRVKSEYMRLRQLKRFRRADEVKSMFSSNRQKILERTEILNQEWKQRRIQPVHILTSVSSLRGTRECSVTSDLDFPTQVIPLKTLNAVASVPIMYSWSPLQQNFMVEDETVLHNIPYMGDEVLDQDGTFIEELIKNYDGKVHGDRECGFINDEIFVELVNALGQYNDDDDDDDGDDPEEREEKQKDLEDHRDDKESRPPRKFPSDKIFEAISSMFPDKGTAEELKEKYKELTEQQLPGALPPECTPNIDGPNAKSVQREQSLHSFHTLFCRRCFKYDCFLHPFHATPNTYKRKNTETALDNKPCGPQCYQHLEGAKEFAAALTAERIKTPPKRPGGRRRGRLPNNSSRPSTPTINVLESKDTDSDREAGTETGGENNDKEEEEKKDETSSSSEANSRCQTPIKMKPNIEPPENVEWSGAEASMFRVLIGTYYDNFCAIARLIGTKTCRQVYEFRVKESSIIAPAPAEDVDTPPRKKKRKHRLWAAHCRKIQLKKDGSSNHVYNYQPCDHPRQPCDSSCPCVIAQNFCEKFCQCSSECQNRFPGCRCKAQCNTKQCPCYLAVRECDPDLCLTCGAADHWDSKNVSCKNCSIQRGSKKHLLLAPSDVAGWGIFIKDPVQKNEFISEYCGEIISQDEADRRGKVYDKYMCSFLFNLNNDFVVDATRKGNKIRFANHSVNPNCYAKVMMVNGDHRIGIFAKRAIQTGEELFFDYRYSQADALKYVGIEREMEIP
Chain of purified human, His-tagged PRC2 complex (Q15022 whole entry partner): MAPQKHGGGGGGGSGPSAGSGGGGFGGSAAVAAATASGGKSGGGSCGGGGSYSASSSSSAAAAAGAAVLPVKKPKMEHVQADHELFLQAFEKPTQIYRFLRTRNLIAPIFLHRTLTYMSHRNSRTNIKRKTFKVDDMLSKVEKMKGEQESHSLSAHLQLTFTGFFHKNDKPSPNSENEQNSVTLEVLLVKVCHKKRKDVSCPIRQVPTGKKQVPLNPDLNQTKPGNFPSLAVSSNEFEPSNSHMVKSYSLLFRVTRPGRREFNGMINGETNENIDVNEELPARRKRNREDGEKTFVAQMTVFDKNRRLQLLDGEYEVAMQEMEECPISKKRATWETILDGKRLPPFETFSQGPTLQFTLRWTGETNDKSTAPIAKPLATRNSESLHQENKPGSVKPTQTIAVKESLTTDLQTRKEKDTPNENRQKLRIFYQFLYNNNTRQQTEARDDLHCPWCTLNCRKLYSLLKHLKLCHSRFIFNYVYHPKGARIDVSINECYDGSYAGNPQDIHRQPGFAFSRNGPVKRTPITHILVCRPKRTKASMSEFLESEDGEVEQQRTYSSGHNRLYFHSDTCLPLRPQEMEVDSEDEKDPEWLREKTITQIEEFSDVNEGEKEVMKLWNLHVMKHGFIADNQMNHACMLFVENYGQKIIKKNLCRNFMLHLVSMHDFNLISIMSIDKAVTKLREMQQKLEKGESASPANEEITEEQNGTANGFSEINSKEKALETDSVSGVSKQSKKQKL
Chain of purified human, His-tagged PRC2 complex (Q6ZN18 whole entry partner): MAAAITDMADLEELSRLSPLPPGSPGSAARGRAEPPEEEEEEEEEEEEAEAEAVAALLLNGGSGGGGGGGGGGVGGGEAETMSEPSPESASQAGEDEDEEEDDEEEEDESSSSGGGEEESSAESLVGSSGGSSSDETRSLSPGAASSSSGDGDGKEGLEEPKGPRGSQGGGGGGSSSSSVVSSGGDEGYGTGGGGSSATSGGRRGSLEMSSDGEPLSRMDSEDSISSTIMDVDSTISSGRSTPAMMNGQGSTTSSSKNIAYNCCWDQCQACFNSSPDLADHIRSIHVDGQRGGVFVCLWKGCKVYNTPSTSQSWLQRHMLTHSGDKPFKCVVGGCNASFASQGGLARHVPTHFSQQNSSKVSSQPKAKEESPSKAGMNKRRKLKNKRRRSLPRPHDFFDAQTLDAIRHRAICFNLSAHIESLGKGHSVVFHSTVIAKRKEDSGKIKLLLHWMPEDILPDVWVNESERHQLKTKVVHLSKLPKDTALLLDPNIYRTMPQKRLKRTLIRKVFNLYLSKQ
Chain of purified human, His-tagged PRC2 complex (Q09028 whole entry partner): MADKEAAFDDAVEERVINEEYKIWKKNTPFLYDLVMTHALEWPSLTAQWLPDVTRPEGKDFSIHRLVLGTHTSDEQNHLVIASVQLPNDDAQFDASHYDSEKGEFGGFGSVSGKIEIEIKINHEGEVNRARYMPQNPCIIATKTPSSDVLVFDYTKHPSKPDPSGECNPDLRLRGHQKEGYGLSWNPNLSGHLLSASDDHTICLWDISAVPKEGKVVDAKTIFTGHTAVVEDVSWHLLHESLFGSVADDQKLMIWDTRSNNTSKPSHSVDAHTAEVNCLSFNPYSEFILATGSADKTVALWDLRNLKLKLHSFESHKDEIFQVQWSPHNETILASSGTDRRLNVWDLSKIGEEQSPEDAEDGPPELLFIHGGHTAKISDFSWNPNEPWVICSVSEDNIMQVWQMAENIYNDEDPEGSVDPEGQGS

How did the pIC50 turn out when `Cc1cc(CN(C)C)ncc1-c1cnc(NCc2c(F)ccc3c2CCO3)n2cc(C#N)nc12` [Example 195, 8-(6-((dimethylamino)methyl)-4-methylpyridin-3-yl)-5-(((5-fluoro-2,3-dihydrobenzofuran-4-yl)methyl)amino)imidazo[1,2-c]pyrimidine-2-carbonitrile] was run?
The pIC50 was over 7.00.

How did the pIC50 turn out when `Cc1nc(CN(C)C)ccc1-c1cnc(NCc2c(F)ccc3c2CCO3)n2cc(C#N)nc12` [Example 152, 8-(6-((dimethylamino)methyl)-2-methylpyridin-3-yl)-5-(((5-fluoro-2,3-dihydrobenzofuran-4-yl)methyl)amino)imidazo[1,2-c]pyrimidine-2-carbonitrile] was run?
The pIC50 was 6.30 to 7.00.

How did the pIC50 turn out when `COC(=O)c1ccc(-c2cnc(NCc3c(F)ccc4c3CCO4)n3cc(C#N)nc23)cn1` [Example 166, methyl 5-(2-cyano-5-(((5-fluoro-2,3-dihydrobenzofuran-4-yl)methyl)amino)imidazo[1,2-c]pyrimidin-8-yl)picolinate] was run?
The pIC50 was over 7.00.

How did the pIC50 turn out when `Cc1n[nH]cc1-c1cnc(NCc2c(F)ccc3c2CCO3)n2cc(C#N)nc12` [Example 79, 5-(((5-fluoro-2,3-dihydrobenzofuran-4-yl)methyl)amino)-8-(3-methyl-1H-pyrazol-4-yl)imidazo[1,2-c]pyrimidine-2-carbonitrile] was run?
Its pIC50 is over 7.00.

How did the pIC50 turn out when `Cc1n[nH]c(C)c1-c1cnc(NCc2c(F)ccc3c2CCO3)n2cc(C#N)nc12` [Example 104, 8-(3,5-dimethyl-1H-pyrazol-4-yl)-5-(((5-fluoro-2,3-dihydrobenzofuran-4-yl)methyl)amino)imidazo[1,2-c]pyrimidine-2-carbonitrile] was run?
Its pIC50 is under 6.30.

`CNS(=O)(=O)c1ccc(-c2cnc(NCc3c(F)ccc4c3CCO4)n3cc(C#N)nc23)cc1` [Example 59, 4-(2-cyano-5-(((5-fluoro-2,3-dihydrobenzofuran-4-yl)methyl)amino)imidazo[1,2-c]pyrimidin-8-yl)-N-methylbenzenesulfonamide] was tested. Which pIC50 did it give?
The pIC50 was over 7.00.

`COCCOc1ccc(-c2cnc(NCc3c(F)ccc4c3CCO4)n3cc(C#N)nc23)cc1` [Example 161, 5-(((5-fluoro-2,3-dihydrobenzofuran-4-yl)methyl)amino)-8-(4-(2-methoxyethoxy)phenyl)imidazo[1,2-c]pyrimidine-2-carbonitrile] was tested. Which pIC50 did it give?
The pIC50 was over 7.00.

`[2H]C([2H])(c1ccc(-c2cnc(NCc3c(F)ccc4c3CCO4)n3cc(C#N)nc23)c(C)c1)N(C)C` [Example 173, 8-(4-((dimethylamino)methyl-d2)-2-methylphenyl)-5-(((5-fluoro-2,3-dihydrobenzofuran-4-yl)methyl)amino)imidazo[1,2-c]pyrimidine-2-carbonitrile] was tested. Which pIC50 did it give?
The pIC50 was over 7.00.

How did the pIC50 turn out when `N#Cc1cn2c(NCc3c(F)ccc4c3CCO4)ncc(C3CC3)c2n1` [Example 77, 8-cyclopropyl-5-(((5-fluoro-2,3-dihydrobenzofuran-4-yl)methyl)amino)imidazo[1,2-c]pyrimidine-2-carbonitrile] was run?
The pIC50 was 6.30 to 7.00.

How did the pIC50 turn out when `N#Cc1cn2c(NCc3c(F)ccc4c3CCO4)ncc(-c3ccc(C(F)(F)F)nc3)c2n1` [Example 126, 5-(((5-fluoro-2,3-dihydrobenzofuran-4-yl)methyl)amino)-8-(6-(trifluoromethyl)pyridin-3-yl)imidazo[1,2-c]pyrimidine-2-carbonitrile] was run?
Its pIC50 is 6.30 to 7.00.

How did the pIC50 turn out when `COc1cc(C)c(-c2cnc(NCc3c(F)ccc4c3CCO4)n3cc(C#N)nc23)cn1` [Example 24, 5-(((5-fluoro-2,3-dihydrobenzofuran-4-yl)methyl)amino)-8-(6-methoxy-4-methylpyridin-3-yl)imidazo[1,2-c]pyrimidine-2-carbonitrile] was run?
The pIC50 was 6.30 to 7.00.

How did the pIC50 turn out when `COc1ncc(-c2cnc(NCc3c(F)ccc4c3CCO4)n3cc(C#N)nc23)c(C)n1` [Example 88, 5-(((5-fluoro-2,3-dihydrobenzofuran-4-yl)methyl)amino)-8-(2-methoxy-4-methylpyrimidin-5-yl)imidazo[1,2-c]pyrimidine-2-carbonitrile] was run?
Its pIC50 is over 7.00.

How did the pIC50 turn out when `[2H]C([2H])([2H])N(Cc1ccc(-c2cnc(NCc3c(F)ccc4c3CCO4)n3cc(C#N)nc23)c(C)c1)C([2H])([2H])[2H]` [Example 202, 8-(4-((bis(methyl-d3)amino)methyl)-2-methylphenyl)-5-(((5-fluoro-2,3-dihydrobenzofuran-4-yl)methyl)amino)imidazo[1,2-c]pyrimidine-2-carbonitrile] was run?
Its pIC50 is over 7.00.

With `N#Cc1cc(-c2cnc(NCc3c(F)ccc4c3CCO4)n3cc(C#N)nc23)ccn1` [Example 188, 8-(2-cyanopyridin-4-yl)-5-(((5-fluoro-2,3-dihydrobenzofuran-4-yl)methyl)amino)imidazo[1,2-c]pyrimidine-2-carbonitrile] as the compound, how does the pIC50 read?
The pIC50 was 6.30 to 7.00.

How did the pIC50 turn out when `N#Cc1cn2c(NCc3c(F)ccc4c3CCO4)ncc(-c3ccncn3)c2n1` [Example 57, 5-(((5-fluoro-2,3-dihydrobenzofuran-4-yl)methyl)amino)-8-(pyrimidin-4-yl)imidazo[1,2-c]pyrimidine-2-carbonitrile] was run?
Its pIC50 is over 7.00.

With `CNCc1ccc(-c2cnc(NCc3c(F)ccc4c3CCO4)n3cc(C#N)nc23)c(C)c1` [Example 196, 5-(((5-fluoro-2,3-dihydrobenzofuran-4-yl)methyl)amino)-8-(2-methyl-4-((methylamino)methyl)phenyl)imidazo[1,2-c]pyrimidine-2-carbonitrile] as the compound, how does the pIC50 read?
Its pIC50 is 6.30 to 7.00.

How did the pIC50 turn out when `N#Cc1cn2c(NCc3c(F)ccc4c3CCO4)ncc(-c3cnn4c3CCC4)c2n1` [Example 80, 8-(5,6-dihydro-4H-pyrrolo[1,2-b]pyrazol-3-yl)-5-(((5-fluoro-2,3-dihydrobenzofuran-4-yl)methyl)amino)imidazo[1,2-c]pyrimidine-2-carbonitrile] was run?
The pIC50 was over 7.00.

`Cc1ncc(F)cc1-c1cnc(NCc2c(F)ccc3c2CCO3)n2cc(C#N)nc12` [Example 62, 5-(((5-fluoro-2,3-dihydrobenzofuran-4-yl)methyl)amino)-8-(5-fluoro-2-methylpyridin-3-yl)imidazo[1,2-c]pyrimidine-2-carbonitrile] was tested. Which pIC50 did it give?
Its pIC50 is over 7.00.

How did the pIC50 turn out when `Cc1cc(C(=O)N(C)C)ncc1-c1cnc(NCc2c(F)ccc3c2CCO3)n2cc(C#N)nc12` [Example 76, 5-(2-cyano-5-(((5-fluoro-2,3-dihydrobenzofuran-4-yl)methyl)amino)imidazo[1,2-c]pyrimidin-8-yl)-N,N,4-trimethylpicolinamide] was run?
Its pIC50 is over 7.00.

`N#Cc1cn2c(NCc3c(F)ccc4c3CCO4)ncc(-c3cnn(CC(F)(F)F)c3)c2n1` [Example 108, 5-(((5-fluoro-2,3-dihydrobenzofuran-4-yl)methyl)amino)-8-(1-(2,2,2-trifluoroethyl)-1H-pyrazol-4-yl)imidazo[1,2-c]pyrimidine-2-carbonitrile] was tested. Which pIC50 did it give?
The pIC50 was over 7.00.

With `Cn1nc(C(=O)O)cc1-c1cnc(NCc2c(F)ccc3c2CCO3)n2cc(C#N)nc12` [Example 157, 5-(2-cyano-5-(((5-fluoro-2,3-dihydrobenzofuran-4-yl)methyl)amino)imidazo[1,2-c]pyrimidin-8-yl)-1-methyl-1H-pyrazole-3-carboxylic acid] as the compound, how does the pIC50 read?
The pIC50 was over 7.00.

`Cc1cc(-c2cnc(NCc3c(Cl)ccc4c3CCO4)n3cc(C#N)nc23)n(C)n1` [Example 29, 5-(((5-chloro-2,3-dihydrobenzofuran-4-yl)methyl)amino)-8-(1,3-dimethyl-1H-pyrazol-5-yl)imidazo[1,2-c]pyrimidine-2-carbonitrile] was tested. Which pIC50 did it give?
The pIC50 was under 6.30.

How did the pIC50 turn out when `N#Cc1cn2c(NCc3c(F)ccc4c3CCO4)ncc(-c3ccc(CN4CCC(O)C4)cc3)c2n1` (stereo not drawn) [Example 151, 5-(((5-fluoro-2,3-dihydrobenzofuran-4-yl)methyl)amino)-8-(4-((3-hydroxypyrrolidin-1-yl)methyl)phenyl)imidazo[1,2-c]pyrimidine-2-carbonitrile] was run?
The pIC50 was over 7.00.

`Cc1nc(C2CC2)ncc1-c1cnc(NCc2c(F)ccc3c2CCO3)n2cc(C#N)nc12` [Example 25, 8-(2-cyclopropyl-4-methylpyrimidin-5-yl)-5-(((5-fluoro-2,3-dihydrobenzofuran-4-yl)methyl)amino)imidazo[1,2-c]pyrimidine-2-carbonitrile] was tested. Which pIC50 did it give?
Its pIC50 is 6.30 to 7.00.

How did the pIC50 turn out when `CN(C)CCn1cc(-c2cnc(NCc3c(F)ccc4c3CCO4)n3cc(C#N)nc23)cn1` [Example 102, 8-(1-(2-(dimethylamino)ethyl)-1H-pyrazol-4-yl)-5-(((5-fluoro-2,3-dihydrobenzofuran-4-yl)methyl)amino)imidazo[1,2-c]pyrimidine-2-carbonitrile] was run?
The pIC50 was 6.30 to 7.00.

With `COc1cc(Cl)c(-c2cnc(NCc3c(F)ccc4c3CCO4)n3cc(C#N)nc23)cn1` [Example 91, 8-(4-chloro-6-methoxypyridin-3-yl)-5-(((5-fluoro-2,3-dihydrobenzofuran-4-yl)methyl)amino)imidazo[1,2-c]pyrimidine-2-carbonitrile] as the compound, how does the pIC50 read?
The pIC50 was 6.30 to 7.00.

How did the pIC50 turn out when `CN(C)Cc1ccc(-c2cnc(NCc3c(F)ccc4c3CCO4)n3cc(C#N)nc23)c(C#N)c1` [Example 198, 8-(2-cyano-4-((dimethylamino)methyl)phenyl)-5-(((5-fluoro-2,3-dihydrobenzofuran-4-yl)methyl)amino)imidazo[1,2-c]pyrimidine-2-carbonitrile] was run?
Its pIC50 is over 7.00.

`N#Cc1cn2c(NCc3c(F)ccc4c3CCO4)ncc(-c3ccc(CN4CCC(F)(F)C4)cc3)c2n1` [Example 55, 8-(4-((3,3-difluoropyrrolidin-1-yl)methyl)phenyl)-5-(((5-fluoro-2,3-dihydrobenzofuran-4-yl)methyl)amino)imidazo[1,2-c]pyrimidine-2-carbonitrile] was tested. Which pIC50 did it give?
Its pIC50 is over 7.00.

How did the pIC50 turn out when `N#Cc1cn2c(NCc3c(F)ccc4c3CCO4)ncc(-c3cccnc3C(F)F)c2n1` [Example 64, 8-(2-(difluoromethyl)pyridin-3-yl)-5-(((5-fluoro-2,3-dihydrobenzofuran-4-yl)methyl)amino)imidazo[1,2-c]pyrimidine-2-carbonitrile] was run?
The pIC50 was over 7.00.

With `N#Cc1cn2c(NCc3c(F)ccc4c3CCO4)ncc(-c3ccc(S(=O)(=O)C(F)(F)F)cc3)c2n1` [Example 82, 5-(((5-fluoro-2,3-dihydrobenzofuran-4-yl)methyl)amino)-8-(4-((trifluoromethyl)sulfonyl)phenyl)imidazo[1,2-c]pyrimidine-2-carbonitrile] as the compound, how does the pIC50 read?
Its pIC50 is 6.30 to 7.00.

— patent US20240398811A1, “PRC2 INHIBITORS FOR USE IN TREATING BLOOD DISORDERS” (ORIC Pharmaceuticals, Inc., priority 2021, published 2024)
